Laboratory results taken from patent US20230312564A1, “AROMATIC RING-LACTAM COMPOUND, PREPARATION METHOD THEREFOR AND USE THEREOF” (SHANGHAI RINGENE BIOPHARMA CO., LTD., priority 2020, published 2023).
pIC50: −log10 of the molar value. Like-named read-outs stand apart in the source and are kept apart here.

Assays:
[1] = Liver microsomal metabolic stability, human; type: in vitro ADME; details: 0.5 mg/mL microsomes, 1 μM compound, NADPH; for half-life at 1 μM: liver microsomes, read-out: Liver microsomal stability T1/2
Experimental: (§1) The reaction was stopped with tinidazole-containing acetonitrile at 0 min, 5 min, 10 min and 30 min, respectively. After vortexing for 10 min and centrifuging at 15,000 rmp for 10 min, 50 μL of the supernatant was injected into a 96-well plate. The metabolic stability of the compound was calculated by determining the relative reduction of the drug, calculated as half-life T1/2.

[2] = Liver microsomal metabolic stability, dog; type: in vitro ADME; details: 0.5 mg/mL microsomes, 1 μM compound, NADPH; for half-life at 1 μM: liver microsomes, read-out: Liver microsomal stability T1/2
Experimental: as §1

[3] = Liver microsomal metabolic stability, mouse; type: in vitro ADME; details: 0.5 mg/mL microsomes, 1 μM compound, NADPH; for half-life at 1 μM: liver microsomes, read-out: Liver microsomal stability T1/2
Experimental: as §1

[4] = Liver microsomal metabolic stability, rat; type: in vitro ADME; details: 0.5 mg/mL microsomes, 1 μM compound, NADPH; for half-life at 1 μM: liver microsomes, read-out: Liver microsomal stability T1/2
Experimental: as §1

[5] = Liver microsomal stability, comparisons in words across species; type: in vitro ADME; details: different species; versus the comparative compounds
Experimental: as §1

ERK1/2 kinase = biological target: T1, ERK1/2 kinase; assay: ERK1/2 kinase (Carna) inhibitory activity, Caliper mobility shift; type: biochemical; details: numeric values; read-out: ERK½ IC50
T1 construct: fused on or other part: Carna's ERK products carry a GST tag by vendor knowledge
Experimental: (1) Preparation of 1×Kinase buffer; (2) preparation of compound concentration gradient: the initial test concentration of the tested compound was 10 μM, which was 3-fold diluted to 10 concentrations, and a duplicate test was conducted, and then the tested compound was diluted in a 96 well plate to a 100-fold final concentration of 10 different concentrations of solution. […] Log (inhibitor) vs. response—Variable slope of the analysis software GraphPad Prism 5 was used to fit the dose-effect curve to obtain the IC50 value of each compound on the enzyme activity.
2. […] (A<10 nM, 10 nM≤B<200 nM, C≥200 nM)

Colo-205 cells = assay: Colo-205 tumor cell proliferation, CCK-8, 72 hours; type: cell-based; details: for pIC50: 72 hours, CCK-8, numeric values, read-out: Colo-205 IC50
Experimental: 1. Test method: Colo-205 cells (ATCC) in logarithmic growth phase were inoculated into a 96-well culture plate at an appropriate density with 90 μL per well. After overnight culture, different concentrations of the compound were added and acted for 72 hours, and a solvent control group (negative control) was set. After the compound was acted on cells for 72 hours, the effect of the compound on cell proliferation was detected by the cell counting kit CCK-8 (Dojindo), and 10 μL of CCK-8 reagent was added to each well. After the plate was placed in a 37° C. incubator for 2 to 4 hours, a full-wavelength microplate reader SpectraMax 190 was adopted for obtaining the readings with a measured wavelength of 450 nm. […] The IC50 value was obtained by four-parameter regression with the software attached to the microplate reader.

Compound	half-life at 1 μM [1]	half-life at 1 μM [2]	half-life at 1 μM [3]	half-life at 1 μM [4]	stability of different kinds of liver microsomes (in words) [5]	pIC50 (ERK1/2 kinase)	pIC50 (Colo-205 cells; Homo sapiens, COLO 205)	Liver microsomal stability T1/2 [1]	Liver microsomal stability T1/2 [2]	Liver microsomal stability T1/2 [3]	pIC50 (Colo-205 cells)	cell proliferation inhibitory activity (in words) (Colo-205 cells; Colo-205)	Liver microsomal stability T1/2 [4]
COc1cc(F)cc([C@@H](CO)NC(=O)[C@@H](C)N2Cc3ccc(-c4nc(NC5CCOCC5)ncc4Cl)cc3C2=O)c1 [Comparative compound 5, (R)-2-(6-(5-Chloro-2-((tetrahydro-2H-pyran-4-yl)amino)pyrimidin-4-yl)-1-oxoisoindolin-2-yl)-N—((S)-1-(3-fluoro-5-methoxyphenyl)-2-hydroxyethyl)propanamide, reference compound]	3 min	41 min	15 min	3 min	–	–	–	–	–	–	–	–	–
C[C@H](C(=O)N[C@H](CO)c1cccc(Cl)c1)N1Cc2ccc(-c3nc(NC4CCOCC4)ncc3Cl)nc2C1=O [Embodiment 21]	62 min	78 min	234 min	13 min	significant advantages	8.28	7.04	–	–	–	–	–	–
C[C@H](C(=O)N[C@H](CO)c1cccc(Cl)c1)N1Cc2ccc(-c3nc(NC4CCOCC4)ncc3Cl)c(F)c2C1=O [Embodiment 34]	–	–	–	–	significant advantages	9.10	–	18 min	75 min	12 min	7.46	strong cell proliferation inhibitory activity	19 min
